Test results taken from patent publication US8394950B2, “Analogues of coformycin and their use for treating protozoan parasite infections” (Industrial Research Limited, priority 2006, dated 2013).
Like-named read-outs stand apart in the source and are kept apart here.

What was measured:
BtADA = molecular target: T1, BtADA (Bos taurus, UniProt P56658); assay: Inhibition of bovine adenosine deaminase (adenosine to inosine, absorbance change); format: biochemical
T1 construct: bovine adenosine deaminase from bovine spleen; purchased Sigma-Aldrich Chemical Company; host or cells: bovine spleen
T1 sequence (P56658 1-363): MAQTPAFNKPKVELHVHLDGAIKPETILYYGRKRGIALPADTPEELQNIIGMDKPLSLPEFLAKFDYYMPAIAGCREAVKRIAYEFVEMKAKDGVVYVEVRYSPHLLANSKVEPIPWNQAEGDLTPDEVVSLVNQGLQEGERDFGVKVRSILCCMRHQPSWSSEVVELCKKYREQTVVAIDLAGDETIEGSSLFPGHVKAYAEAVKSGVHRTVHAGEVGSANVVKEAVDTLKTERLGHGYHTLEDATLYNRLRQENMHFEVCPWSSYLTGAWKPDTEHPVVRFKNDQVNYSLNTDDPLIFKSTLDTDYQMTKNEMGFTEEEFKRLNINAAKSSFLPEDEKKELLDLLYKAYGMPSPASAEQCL
Description: (§1) Inhibition studies measured both initial and slow-onset rates to establish both the initial dissociation constant (Ki) and the steady-state dissociation constant (Ki*) as previously described [Kicska, G. A., Tyler, P. C., Evans, G. B., Furneaux, R. H., Kim, K., and Schramm, V. L. (2002) J Biol Chem 277, 3219-3225.]. Kd is the lower of these values.
(§2) Concentrations of inhibitors were determined spectrophotometrically using the extinction coefficient of 8250 M^−1cm^−1 at 282 nm.
(§3) (V. L. Schramm, D. C. Baker, Biochemistry, 1985, 24, 641-646). Inhibitor concentrations ranging from 10 μM to 2 nM were used for determination of the inhibition constants and an enzyme concentration of 1 nM. The Ki values were determined by fitting the initial rate and inhibitor concentrations to the following expression of competitive inhibition: (V′o/Vo)=(KM+[S])/(KM+[S]+(KM[I]/Ki)) where V′o is the initial rate in the presence of inhibitor, and Vo is the initial rate in the absence of inhibitor, [I] is the inhibitor concentration, and [S] is the substrate concentration.

HsADA = molecular target: T2, HsADA (Homo sapiens, UniProt P00813); assay: Inhibition of human adenosine deaminase (adenosine to inosine, absorbance change); format: biochemical
T2 construct: Human adenosine deaminase from human erythrocytes; purchased Sigma-Aldrich Chemical Company; host or cells: human erythrocytes
T2 sequence (P00813 1-363): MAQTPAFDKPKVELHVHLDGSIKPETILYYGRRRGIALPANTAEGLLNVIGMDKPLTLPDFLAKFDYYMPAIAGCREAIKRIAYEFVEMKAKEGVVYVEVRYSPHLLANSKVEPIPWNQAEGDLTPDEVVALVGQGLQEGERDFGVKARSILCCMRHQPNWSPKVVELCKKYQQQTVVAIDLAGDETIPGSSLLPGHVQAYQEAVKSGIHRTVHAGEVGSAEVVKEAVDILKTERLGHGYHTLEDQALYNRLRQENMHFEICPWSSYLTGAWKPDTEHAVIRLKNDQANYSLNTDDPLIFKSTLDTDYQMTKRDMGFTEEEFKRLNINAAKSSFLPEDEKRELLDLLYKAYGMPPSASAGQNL
Description: as §1, §2, §3

PfADA = molecular target: T3, PfADA (Plasmodium falciparum, UniProt Q8IJA9); assay: biochemical; format: biochemical
T3 sequence (Q8IJA9 1-367): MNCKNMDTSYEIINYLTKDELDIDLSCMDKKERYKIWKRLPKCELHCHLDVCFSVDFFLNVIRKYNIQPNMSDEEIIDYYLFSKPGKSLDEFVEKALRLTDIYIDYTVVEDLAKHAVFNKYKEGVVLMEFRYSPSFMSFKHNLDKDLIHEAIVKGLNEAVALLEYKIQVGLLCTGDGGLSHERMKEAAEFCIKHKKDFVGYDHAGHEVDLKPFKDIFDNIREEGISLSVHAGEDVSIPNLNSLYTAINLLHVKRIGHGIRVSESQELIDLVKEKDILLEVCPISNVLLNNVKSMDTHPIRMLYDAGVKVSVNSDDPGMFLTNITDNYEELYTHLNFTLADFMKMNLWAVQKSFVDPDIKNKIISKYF
Description: as §1, §2, §3

P. falciparum [1] = assay: Visual inspection of parasitemia in infected red blood cells after 48 hours; format: cell-based; details: for parasitemia after 48 hours: 1% parasitemia initially
P. falciparum strain 3D7 = assay: P. falciparum culture kill curves, uptake of tritiated ethanolamine in red blood cells; format: cell-based; details: for IC50: read-out: IC50, prevention of growth of P. falciparum (uptake of tritiated ethanolamine)
Description: Human erythrocytes were collected from local volunteers under protocol CCI 00-31 or CCI 99-240 of the Albert Einstein College of Medicine. Cultures of P. falciparum strain 3D7 were grown in RPMI supplemented with 0.5% Albumax II (Invitrogen) and were sorbitol-synchronized twice before initiation of the 72 hour assay in 96-well plates with a total volume of 200 μL at 1% hematocrit and 0.8% parasitemia (100% rings). […] Drugs were dissolved in water and diluted with media prior to addition to cultures. […] After 54 h, cell cultures were frozen and thawed to disrupt cells, and the mixtures were harvested on glass fiber filters. Filters were counted in a Winspectral 1414 scintillation counter. Experiments were done twice with six replicate wells for each experiment. Individual data points more than two standard deviations from the mean were discarded. For some experiments, parasitemias were counted on Giemsa-stained smears of cultures treated in parallel.

Plasmodium knowlesi = details: single dose, primates with Plasmodium knowlesi; cited from earlier work
[2] = in vivo; cited from earlier work
P. falciparum [3] = details: cited from earlier work; for killing of P. falciparum in culture (in words): in culture / growing in human erythrocytes
[4] = initial dissociation constant, 100 μM adenosine, pH 7.0, 30° C., read-out: PfADA Ki
[5] = methylthioadenosine (100 μM) plus compound (10 μM)
[6] = no detectible slow onset, read-out: dissociation constants (PfADA)
[7] = methylthioadenosine (100 μM) alone

Compound: CSC[C@H]1O[C@@H](n2cnc3c2N=CNC[C@H]3O)C[C@@H]1O [5′-MeS-2′-deoxycoformycin (16), (8R)-3-(2′-deoxy-5′-methylthio-β,D-erythro-pentofuranosyl)-8-hydroxy-3,6,7,8-tetrahydroimidazo[4,5-d][1,3]diazepine]
- Ki (BtADA; read-out: BtADA Ki): > 10000 nM
- Ki (HsADA; read-out: HsADA Ki): > 10000 nM
- Ki (PfADA; [4]): 2.3 ± 0.8 nM
- Ki (PfADA; slow onset equilibrium dissociation constant, read-out: PfADA Ki^a): 0.73 ± 0.22 nM

Compound: (8R)-8-hydroxy-3-(5-methylthio-β-D-ribofuranosyl)-3,6,7,8-tetrahydroimidazo[4,5-d][1,3]diazepine [5′-MeS-Coformycin (8)]
- parasitemia after 48 hours (P. falciparum [1]; [5]): 1%
- parasites in the trophozoite form after 48 hours (P. falciparum [1]; [5]): 100%
- killing of P. falciparum growing in human erythrocytes (in words) (P. falciparum strain 3D7): kills P. falciparum growing in human erythrocytes
- IC50 (P. falciparum strain 3D7; strain 3D7 in red blood cells, 72 hour assay, no hypoxanthine supplementation): 62 nM

Compound: OC[C@H]1O[C@@H](n2cnc3c2N=CNC[C@H]3O)[C@H](O)[C@@H]1O [Coformycin]
- Ki (BtADA; BtADA Ki (nM), initial dissociation constant, 100 μM adenosine, pH 7.0, 30° C., >10,000 = no inhibition at 10 μM): 1.1 ± 0.4 nM
- Ki (BtADA; BtADA Ki^a (nM), slow onset equilibrium dissociation constant): 0.06 ± 0.01 nM
- inhibition of bovine ADA (in words) (BtADA; mammalian ADAs): inhibiting mammalian ADAs with equivalent potency
- Ki (HsADA; HsADA Ki (nM), initial dissociation constant, 100 μM adenosine, pH 7.0, 30° C., >10,000 = no inhibition at 10 μM): 13.9 ± 3.4 nM
- Ki (HsADA; HsADA Ki^a (nM), slow onset equilibrium dissociation constant): 0.11 ± 0.02 nM
- inhibition of human ADA (in words) (HsADA; mammalian ADAs): inhibiting mammalian ADAs with equivalent potency
- parasitemia after 48 hours (P. falciparum [1]; [5]): 1%
- parasites in the trophozoite form after 48 hours (P. falciparum [1]; [5]): 100%
- IC50 (P. falciparum strain 3D7; Plasmodium falciparum, 3D7, Erythrocyte, 72 h): 3.5 nM
- potency relative to 5′-methylthiocoformycin (times more potent) (PfADA; PfADA): about 5 times
- Ki (PfADA; PfADA Ki (nM), initial dissociation constant, 100 μM adenosine, pH 7.0, 30° C.): 0.68 ± 0.07 nM
- Ki (PfADA; PfADA Ki^a (nM), slow onset equilibrium dissociation constant): 0.08 ± 0.02 nM
- Ki (PfADA; tightest dissociation constants, slow onset inhibition, range over all three enzymes (BtADA, HsADA, PfADA)): 0.027 to 0.11 nM

Compound: O[C@@H]1CNC=Nc2c1ncn2[C@H]1C[C@H](O)[C@@H](CSc2ccccc2)O1 [5′-PhS-2′-deoxycoformycin (18), (8R)-3-(2′-deoxy-5′-phenylthio-β,D-erythro-pentofuranosyl)-8-hydroxy-3,6,7,8-tetrahydroimidazo[4,5-d][1,3]diazepine]
- Ki (BtADA; read-out: BtADA Ki): > 10000 nM
- inhibition of PfADA (in words) (PfADA): no detectible slow onset
- Ki (PfADA; [4]): 61 ± 11 nM
- Ki (PfADA; [6]): 61 nM

Compound: CCCSC[C@H]1O[C@@H](n2cnc3c2N=CNC[C@H]3O)C[C@@H]1O [5′-PrS-2′-deoxycoformycin (17), (8R)-3-(2′-deoxy-5′-propylthio-β,D-erythro-pentofuranosyl)-8-hydroxy-3,6,7,8-tetrahydroimidazo[4,5-d][1,3]diazepine]
- Ki (BtADA; read-out: BtADA Ki): > 10000 nM
- Ki (HsADA; read-out: HsADA Ki): > 10000 nM
- inhibition of PfADA (in words) (PfADA): no detectible slow onset
- Ki (PfADA; [4]): 12 ± 1 nM
- Ki (PfADA; [6]): 12 nM

Compound: OC[C@H]1O[C@@H](n2cnc3c2NC=NC[C@H]3O)C[C@@H]1O [2′-deoxycoformycin]
- effect on parasitemia (in words) (Plasmodium knowlesi): dramatically reduced parasitemia
- toxicity in mammals (in words) [2]: highly toxic

Compound: CSC[C@H]1N[C@@H](c2c[nH]c3c(=O)[nH]cnc23)[C@H](O)[C@@H]1O [5′-Methylthio-Immucillin-H]
- killing of P. falciparum in culture (in words) (P. falciparum [3]): able to kill P. falciparum growing in human erythrocytes
- killing of P. falciparum in culture (in words) (P. falciparum [3]; listed as 5′-methylthio-Immucillin-H): kill P. falciparum in culture

Compound: O=c1[nH]cnc2c([C@@H]3N[C@H](CO)[C@@H](O)[C@H]3O)c[nH]c12 [Immucillin-H]
- time to purine-less death (P. falciparum [3]; P. falciparum-infected erythrocytes, simultaneous inhibition of host and parasite PNP): ≤ 24 h

Compound: 5′-methylthioadenosine
- parasitemia after 48 hours (P. falciparum [1]; [7]): 8%
- parasites in the ring form after 48 hours (P. falciparum [1]; [7]): 97%
